Laboratory results reported in patent publication USRE43632E1, “1,3-propane diol esters and ethers and methods for their use in drug delivery” (Scarista, Ltd., priority 1995, dated 2012).
Like-named read-outs stand apart in the source and are kept apart here.

Assays:
[1] = In vivo delivery, release and metabolism of diesters after oral or intravenous administration
Procedure: (§1) GLA was administered in the form of either GLA-GLA or GLA-EPA and EPA was administered in the form of GLA-EPA or EPA-EPA. The diesters were given either orally by gavage or intravenously in the form of a 20% emulsion made using 2% of oat galactolipid as an emulsifier in doses from about 0.1 to 2.0 g/kg. Animals were killed after 1, 2, 4, 8 and 24 hours and plasma, red cells and liver collected. The presence of the unmetabolised diesters was identified by high pressure liquid chromatography. The presence of fatty acids derived from the diesters and of metabolites of those fatty acids was checked by lipid extraction of the liver, plasma or red cells, by separation of that lipid fraction into triglycerides, phospholipids, cholesterol esters and free fatty acids by thin layer chromatography, by methylation of the fatty acids derived from those separated fractions and by analysis of those fatty acids using gas chromatography using methods well described in standard texts.

[2] = system: normal fibroblast line, a breast cancer line and a malignant melanoma line; conditions: all cell lines: normal fibroblast, results set out in EPA-0 675 103; cited from earlier work
[3] = in vivo, po
Procedure: as §1

[4] = system: ASPC-1 human pancreatic cancer; assay: ASPC-1 human pancreatic cancer transplanted subcutaneously into nude mice; assay type: in vivo
Procedure: As a specific example of the therapeutic efficacy of the diesters, the 1,3 GLA-EPA propane diol diester was tested in the treatment of the ASPC-1 human pancreatic -cancer transplanted subcutaneously into nude mice which because they lack thymus function are able to accept foreign transplants without rejection. 15 mice were each injected subcutaneously with 5 million ASPC-1 cells suspended in Matrigel and DMEM buffer. In all animals a tumour developed whose size could be measured using callipers and whose volume could be estimated from the linear dimensions. Tumour size in each animal was measured twice weekly for five weeks. The animals were divided into three groups. 5 animals were used as controls and received 10 g/kg corn oil per day only. 5 animals received 10 g/kg corn oil per day but in addition received two injections per week of a dose of 1.5 g/kg of the GLA-EPA diester. […] The other 5 animals instead of the corn oil received 10 g/kg/day of the GLA-EPA diester. The treatments were continued for three weeks and then the tumours were allowed to grow for a further two weeks before the animals were sacrificed and the tumours excised and weighed. The mean tumour weights were: control group, 1240±290 mg; intravenous GLA-EPA group, 820±180 mg; oral GLA-EPA group, 490±160 mg. […] Thus the diesters are biologically active ways of administering the various fatty acids. The diesters can therefore be reasonably expected to exert the many desirable effects of the fatty acids which have been noted in many publications in the literature (e.g. Horrobin D F, ed., Omega-6 Essential Fatty Acids: Pathophysiology and Roles in Clinical Medicine: Wiley-Liss, New York, 1990.Simopoulos A P et al, eds, Health Effects of Omega-3 Polyunsaturated Fatty Acids in Seafoods, Karger, Basel, 1991. Fats and Oils in Human Nutrition, World Health Organization, Rome, 1994. Unsaturated Fatty Acids: Nutritional and Physiological Significance. British Nutrition Foundation, Chapman and Hall, London, 1992).

fasted rats = assay: Gastrointestinal ulceration in fasted rats; conditions: indomethacin 5-30 mg/kg or same amount as diester, sacrificed after 24 hours
Procedure: Doses of indomethacin known to cause gastrointestinal ulceration (5-30 mg/kg) were given to fasted rats either in the form of free indomnethacin or the same amount of indomethacin in a 1,3-propane diol diester with GLA in the other position. The animals were sacrificed after 24 hours and the whole gastrointestinal tract examined for ulceration.

CCCCCC=CCC=CCC=CCCCCC(=O)OCCCOC(=O)c1cccnc1 [niacin-GLA]
absorption and release of active moieties ([1]; oral administration): absorbed following oral administration and to release their active moieties

CCCCC/C=C\C/C=C\C/C=C\CCCCC(=O)OCCCOC(=O)Cc1c(C)n(C(=O)c2ccc(Cl)cc2)c2ccc(OC)cc12 [indomethacin-GLA]
intracellular level after incubation (cell penetration) [2]: very substantial amounts of both indomethacin-GLA and free indomethacin

CCCCC/C=C\C/C=C\C/C=C\CCCCC(=O)OCCCOC(=O)CCCC/C=C\C/C=C\C/C=C\CCCCC [GLA-GLA, 1,3-(di-z,z,z-Octadeca-6,9,12-trienoyloxy)propane]
absorption and release of active moieties [3]: absorbed following oral administration and to release their active moieties

CC/C=C\C/C=C\C/C=C\C/C=C\C/C=C\CCCC(=O)OCCCOC(=O)CCCC/C=C\C/C=C\C/C=C\CCCCC [GLA-EPA, 1-(z,z,z-Octadeca-6,9,12-trienoyloxy)-3-(z,z,z,z,z-eicosa-5,8,11,14,17-pentaenoyloxy)propane]
in vivo release of free GLA and EPA ([1]; intravenous infusion and oral administration of the diester emulsion): rapid in vivo release of free GLA and EPA
tumour growth ([4]; both oral and intravenous administration): substantially inhibited
mean tumour weight ([4]; intravenous, 1.5 g/kg two injections per week for three weeks, 20% emulsion, tumours weighed at five weeks): 820 ± 180 mg
side effects or distress in the animals ([4]; mouse, in vivo): without causing any side effects or distress
tolerability of the intravenous emulsion ([4]; nude mice, 20% emulsion with 2% oat galactolipid, 1.5 g/kg twice weekly): very well tolerated and caused no haemolysis or thrombophlebitis

CCCCC/C=C\C/C=C\C/C=C\CCCCC(=O)OCCCOC(=O)Cc1c(C)n(C(=O)c2ccc(Cl)cc2)c2ccc(OC)cc12 [GLA-indomethacin, 1-(z,z,z-Octadeca-6,9,12-trienoyloxy)-3-(I-(4-chlorobenzoyl)-5-methoxy-2-methyl-indole-3-acetyloxy)propane]
absorption and release of active moieties [3]: absorbed following oral administration and to release their active moieties

COc1ccc2c(c1)c(CC(=O)O)c(C)n2C(=O)c1ccc(Cl)cc1 [indomethacin, reference compound]
ulceration of the whole gastrointestinal tract (fasted rats): extensive ulceration
intracellular level after incubation (cell penetration) [2]: very low
